From ChEMBL document CHEMBL1201862, “PubChem BioAssay data set” (2004)
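Following 48 hours of exposure in 96-well plates, responses at five concentrations were used to interpolate endpoints linearly. Here, GI50 denotes the concentration required for 50% inhibition of growth.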 The source made the active and inactive calls. No stated cut-off is given here; in the data, active = GI50 up to about 1.1 µM and inactive = higher.

Columns and labels:
Assay in all cases: growth of human tumour cells (NCI), 48 h
[1] = test system: 786-0
[2] = test system: A498
[3] = test system: A549
[4] = test system: EKVX
[5] = test system: HOP-92
[6] = test system: HT-29
[7] = test system: M14
[8] = test system: Malme-3M
[9] = test system: NCI-H522
[10] = test system: SF-539
[11] = test system: SK-MEL-5
[12] = test system: SNB-78
[13] = test system: U-251
[14] = test system: NCI-H460
[15] = test system: TK-10

SMILES	GI50 [1]	GI50 [2]	GI50 [3]	GI50 [4]	GI50 [5]	GI50 [6]	GI50 [7]	GI50 [8]	GI50 [9]	GI50 [10]	GI50 [11]	GI50 [12]	GI50 [13]	GI50 [14]	GI50 [15]
COc1ccc2c3ccc4c(c3n(C)c2c1)C(=O)c1ccccc1C4=O	13.4 µM (inactive)	48.4 µM (inactive)	74.5 µM (inactive)	> 100 µM (inactive)	80 µM (inactive)	11.7 µM (inactive)	> 100 µM (inactive)	85.7 µM (inactive)	> 100 µM (inactive)	22.2 µM (inactive)	> 100 µM (inactive)	> 100 µM (inactive)	63.8 µM (inactive)	–	–
CCc1cccc(CC)c1NC(=O)C(=O)Cc1nc2ccccc2o1	> 100 µM (inactive)	> 100 µM (inactive)	> 100 µM (inactive)	> 100 µM (inactive)	> 100 µM (inactive)	> 100 µM (inactive)	> 100 µM (inactive)	> 100 µM (inactive)	> 100 µM (inactive)	> 100 µM (inactive)	–	> 100 µM (inactive)	> 100 µM (inactive)	> 100 µM (inactive)	> 100 µM (inactive)
CC(C)c1ccc(C(c2ccc(OCC(=O)O)cc2)c2ccc(C(C)C)cc(=O)c2O)c(O)c(=O)c1	6.47 µM (inactive)	23.9 µM (inactive)	3.48 µM (inactive)	4.93 µM (inactive)	0.0478 µM (active)	3.92 µM (inactive)	3.18 µM (inactive)	–	–	6.05 µM (inactive)	3.22 µM (inactive)	6.79 µM (inactive)	5.3 µM (inactive)	2.83 µM (inactive)	5.3 µM (inactive)
CN1OC2OC(=O)OC2[C@H]1[C@H]1O[C@H](c2ccccc2)OC1(C)c1cc(OC(=O)c2ccccc2)ccc1OC(=O)c1ccccc1 (stereo partly drawn)	> 50 µM (inactive)	–	> 50 µM (inactive)	> 50 µM (inactive)	> 50 µM (inactive)	> 50 µM (inactive)	> 50 µM (inactive)	> 50 µM (inactive)	> 50 µM (inactive)	> 50 µM (inactive)	> 50 µM (inactive)	> 50 µM (inactive)	> 50 µM (inactive)	> 50 µM (inactive)	> 50 µM (inactive)
O=S1(=O)OCCOS(=O)(=O)C1I	71 µM (inactive)	> 100 µM (inactive)	> 100 µM (inactive)	> 100 µM (inactive)	> 100 µM (inactive)	> 100 µM (inactive)	> 100 µM (inactive)	> 100 µM (inactive)	> 100 µM (inactive)	> 100 µM (inactive)	66.8 µM (inactive)	> 100 µM (inactive)	–	–	> 100 µM (inactive)
Cc1cc(O)c2c(c1)C(O)(c1ccc3c(c1O)C(=O)c1c(O)cc(C)cc1C3(O)C1OC(CO)C(O)C(O)C1O)c1cccc(O)c1C2=O (stereo not drawn)	15.3 µM (inactive)	13.6 µM (inactive)	18.3 µM (inactive)	14.3 µM (inactive)	6.19 µM (inactive)	20.5 µM (inactive)	14.4 µM (inactive)	11.7 µM (inactive)	–	13.6 µM (inactive)	18.9 µM (inactive)	16.1 µM (inactive)	11.6 µM (inactive)	14 µM (inactive)	14.1 µM (inactive)
C[C@]12CC[C@H](O)CC1=CC[C@@H]1C2CC[C@]2(C)NC(=O)C(C#N)CC12 (stereo partly drawn)	> 100 µM (inactive)	> 100 µM (inactive)	> 100 µM (inactive)	> 100 µM (inactive)	–	> 100 µM (inactive)	> 100 µM (inactive)	> 100 µM (inactive)	–	> 100 µM (inactive)	> 100 µM (inactive)	> 100 µM (inactive)	> 100 µM (inactive)	> 100 µM (inactive)	> 100 µM (inactive)
Cc1ccc(-c2nc3ccccc3c(=O)n2NCC2(O)OCC(O)C(O)C2O)cc1 (stereo not drawn)	> 100 µM (inactive)	> 100 µM (inactive)	> 100 µM (inactive)	> 100 µM (inactive)	–	> 100 µM (inactive)	> 100 µM (inactive)	> 100 µM (inactive)	> 100 µM (inactive)	> 100 µM (inactive)	> 100 µM (inactive)	> 100 µM (inactive)	> 100 µM (inactive)	> 100 µM (inactive)	–
C[C@H]1NC(=O)C2CCCCN2C(=O)CN(C)C(=O)CNC(=O)C2CCCCN2C(=O)[C@@H](NC(=O)c2nc3ccccc3cc2O)[C@@H](C)NC(=O)C2CCCCN2C(=O)CN(C)C(=O)CNC(=O)[C@@H]2CCCCN2C(=O)C1NC(=O)c1nc2ccccc2cc1O (stereo partly drawn)	0.203 µM (active)	0.166 µM (active)	0.318 µM (active)	0.668 µM (active)	–	0.347 µM (active)	0.241 µM (active)	0.182 µM (active)	0.106 µM (active)	0.201 µM (active)	0.155 µM (active)	0.0865 µM (active)	0.0153 µM (active)	0.188 µM (active)	0.525 µM (active)
CCCNCc1nc2ccc(Br)cc2c(=O)n1CCC	15.8 µM (inactive)	18.1 µM (inactive)	16.6 µM (inactive)	19.1 µM (inactive)	–	15.1 µM (inactive)	14.1 µM (inactive)	13.5 µM (inactive)	13.4 µM (inactive)	15.8 µM (inactive)	7.55 µM (inactive)	17.5 µM (inactive)	13.3 µM (inactive)	–	–
